# Laboratory results: patent US5830994A, “Peptide derivatives of alpha-MSH and their application” (Institut Europeen De Biologie Cellulaire, priority 1993, dated 1998)
# “And” between values parts separate entries of the source, which are not always exact repeats. Equal values may be shown once. Read-outs that look alike come from different tables or passages of the source.
# Assays:
# Interleukin-1α = assay: Inhibition of the synthesis of Interleukin 1 (IL1α) induced by LPS in mice, serum ELISA; format: in vivo, BALB/C mice
# Protocol: Study of the immunosuppressive activity of the derivative compound 4 on the inhibition of the synthesis of Interleukin 1 "IL1" in mice.
# The secretion of IL1 is induced by the parenteral administration of lipopolysaccharides "LPS" to BALB/C mice.
# Compound 4 (P-IV) is dissolved in physiological saline. It is assayed quantitatively by spectrophotometry at 280 nm (assay of Tryptophan) which allows an accurate assay of "P-IV" in the solutions which are stored at -25° C.
# Extracts of Escherichia Coli serotype 0127 - B8 -"Ref. SIGMA - L3137" are used at the concentration of 6 mg/ml in physiological saline.
# BALB/C mice--females--5 weeks old, obtained from IFFA - CREDO subjected to a photoperiod of 12 hours of light per 24 hours water and feed ad libitum
# the other based on a single treatment, consequently much more rapid, will serve for the control of the PIV activity ("DAYNES" technique).
# The animals in the control batches receive an injection of 0.2 ml of physiological saline subcutaneously, the animals in the PIV batches receive an injection of the product at various dosages subcutaneously. This treatment takes place for 5 days.
# Forty-eight hours after the treatment with PIV, a sublethal dose of LPS (1.2 mg in 0.2 ml of physiological saline) is injected intraperitoneally into each animal in the PIV batches and in the positive control batch.
# One hundred and eighty minutes later, all the mice were punctured through the retroorbital sinuses on dry tubes. As soon as the blood coagulates, the clot is detached. The blood is centrifuged for 10 minutes at 1800 g at a temperature of 10° C.
# 40 μg of PIV in 0.2 ml of physiological saline--that is to say 200 μg/ml
# 25 Ag of PIV in 0.2 ml of physiological saline--that is to say 125 μg/ml
# 10 μg of PIV in 0.2 ml of physiological saline--that is to say 50 μg/ml
# The animals in the control batches receive an injection of 0.2 ml of physiological saline intravenously.
# The animals in the PIV batches receive an injection of the product at various dosages intravenously. (Caudal vein)
# Immediately afterwards, a sublethal dose of LPS (1.2 mg years [sic] 0.2 ml of physiological saline) is injected intraperitoneally into each animal in the PIV batches and into the positive control batches.
# One hundred and eighty minutes later, all the mice are punctured through the retroorbital sinuses on dry tubes. As soon as the blood coagulates, the clot is detached. The blood is centrifuged for 10 minutes at 1800 g at a temperature of 10° C. The sera once collected are frozen at -25° C.
# The Interleukin-1α contained in these sera is assayed 24 hours after the sampling with the murine IL1α ELISA assay Kit (ref. 1900 GENZYME)
# Rapid description of the Kit: the method used for this assay is of the sandwich type.
# A first anti-murine IL1α monoclonal antibody is used
# The samples are then deposited, then a second biotinylated anti-IL1α antibody is caused to react.
# The coloured reaction uses tetramethylbenzidine (TMB)
# The reading is made at 450 nm on a MULTISKAN MCC 340 MKII (TITERTEK) plate reader.
# [1] = system: embryonic cells (melanoblasts, neuroblasts, myoblasts, epidermal cells, fibroblasts, mesenchymatous cells); format: cell-based, Triton embryo and Axolotl embryo
# Protocol: Qualitative and quantitative analysis of the effects of PIV on melanocyte differentiation in in vitro culture. Sample to be analyzed--compound 4=PIV Embryonic cells isolated in in vitro culture in a defined, purely saline medium (standard culture conditions: 2 ml of medium/culture). The embryonic territory is collected (from Triton embryo and from Axolotl embryo) from the first stage of melanogenesis, immediately after melanocyte induction. At this early stage of embryonic development, the neural swelling, which has just become individualized, contains all the melanoblastic precursors. The culture of the cells of the neural swelling and of the underlying mesoderm makes it possible to coculture (under completely identical conditions) the melanoblasts with various other cell precursors belonging to various categories: neuroblasts, myoblasts, epidermal cells, fibroplasts [sic], mesenchymatous cells. This allows a comparative kinetic study, on a living material, of the effects of PIV on the melanocytes and various other cell types. Duration of the culture (primary culture): 2 to 3 weeks at 20° C. The cell differentiation appears morphologically from the 3rd day and is practically complete at 8-10 days of culture. A series of PIV concentrations was analyzed: 0.01 μg/ml; 0.1 μg/ml; 1 μg/ml; and 10 μg/ml The following 2 doses were therefore selected for this work: 0.1 and 1 μg/ml. 1 single treatment during the innoculation of cultured cells. After their attachment (3 days at 20° C.), the medium is replaced with fresh medium without the Peptide PIV 1 treatment during the innoculation and a 2nd treatment during the change of medium. We developed two melanin assays: by HPLC with electrochemical detection by spectrophotometry (by adaptation of the method of TOMITA et al. 1990) at 470 nm. The development of these assays was carried out using standard solutions of melanin (Sigma, ref. M 8631) in order to define the comparative sensitivity and the minimum level of detection by either of the methods. The μg is the minimum level which can be assayed by spectrophotometry; the ng is the lower level which can be assayed by HPLC. It should however, be observed that these two techniques, especially the spectrophotometric assay, can be used since, for our cell cultures, 15 embryonic explants associated in culture are sufficient to allow quantification (by spectrophotometry).
substance,measurement,setting,value
[(DL) Lip] His - D.homoPhe - Arg - Trp - NH2 [PIV],mean decreases in IL1α,"Interleukin-1α; 50 μg/ml, five studies",50%
same,mean decreases in IL1α,"Interleukin-1α; 125 μg/ml, five studies",50%
same,mean decreases in IL1α,"Interleukin-1α; 200 μg/ml, five studies",60%
same,mean decreases in IL1α,"Interleukin-1α; all dosages, all the five studies",~55%
same,decrease in the synthesis of Interleukin-1α relative to the control,Interleukin-1α; with the two methodologies used (SHEEHAN and DAYNES),at least 50%
same,"cell proliferation of epidermis cells, mesenchymatous cells, fibroblasts (in words)",[1],no specific cell proliferation
same,"cytotoxic effect on epidermis cells, mesenchymatous cells, fibroblasts (in words)",[1],no cytotoxic effect
same,"differentiation and behaviour in vitro of epidermis cells, mesenchymatous cells, fibroblasts (in words)",[1],no retardation or accelaration
same,"number of neurons and size of the cell bodies, neuroblasts (in words)",[1],no specific stimulating effect
same,"size and spreading of epidermis cells, mesenchymatous cells, fibroblasts (in words)",[1],no stimulating effect
same,"effect on melanocyte differentiation, dose/response trial (in words)",[1]; 0.01 μg/ml,no effect
same,"effect on melanocyte differentiation, dose/response trial (in words)",[1]; 1 μg/ml,optimal effect
same,effect on melanogenesis (in words),[1]; 0.1 and 1 μg/ml,Stimulating effect
same,"Stimulation (melanin, treated vs control cultures)",[1]; 1st to 4th experiment,2.5 × and 2.3 × and 1.5 ×
same,appearance of phenotypic differentiation of the melanocytes (in words),"[1]; treated cultures, from the 2nd day after innoculation, vs control cultures",more rapidly
same,number of melanocytes (in words),[1]; treated vs control cultures,increase
